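The compound was tested at five concentrations on cells cultured in 96-well plates, with a 48-hour exposure period. GI50 = concentration required for 50% inhibition of growth.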 Active and inactive are the calls of the source. Rule as the data show it: active = GI50 up to about 1.1 µM and inactive = higher.
Assays:
Assay in all cases: growth of human tumour cells (NCI), 48 h
LOX IMVI = tested on: LOX IMVI
HT-29 = tested on: HT-29
OVCAR-5 = tested on: OVCAR-5
786-0 = tested on: 786-0
A549 = tested on: A549
RXF 393 = tested on: RXF 393
OVCAR-8 = tested on: OVCAR-8
UACC-62 = tested on: UACC-62
SW-620 = tested on: SW-620
NCI-H226 = tested on: NCI-H226
NCI-H23 = tested on: NCI-H23
SK-OV-3 = tested on: SK-OV-3
HOP-92 = tested on: HOP-92
OVCAR-4 = tested on: OVCAR-4
Malme-3M = tested on: Malme-3M
SK-MEL-5 = tested on: SK-MEL-5
COLO 205 = tested on: COLO 205
IGROV-1 = tested on: IGROV-1
NCI/ADR-RES = tested on: NCI/ADR-RES

Measured: GI50

C=C(C)CCOC(c1ccccc1)(c1ccccc1)c1ccccc1
inactive: LOX IMVI 25.2 µM | HT-29 22.3 µM | OVCAR-5 > 100 µM | 786-0 > 100 µM | A549 38.9 µM | RXF 393 18.5 µM | OVCAR-8 73.5 µM | UACC-62 40.1 µM | SW-620 82.4 µM | NCI-H226 26.3 µM | NCI-H23 27.8 µM | SK-OV-3 > 100 µM | HOP-92 33.6 µM | OVCAR-4 34.7 µM | Malme-3M 28.4 µM | SK-MEL-5 27.4 µM | COLO 205 55.1 µM | IGROV-1 > 100 µM

COC(=O)c1ccccc1/C=C1\Cc2c(C)cc(C)cc2C1=O
inactive: LOX IMVI > 100 µM | HT-29 > 100 µM | 786-0 > 100 µM | A549 > 100 µM | RXF 393 > 100 µM | OVCAR-8 > 100 µM | UACC-62 > 100 µM | SW-620 > 100 µM | NCI-H226 > 100 µM | HOP-92 > 100 µM | OVCAR-4 > 100 µM | Malme-3M > 100 µM | SK-MEL-5 > 100 µM | IGROV-1 > 100 µM

O=C(O)c1ccc(S(=O)(=O)c2ccccc2[N+](=O)[O-])cc1
inactive: LOX IMVI > 10 µM | HT-29 > 10 µM | OVCAR-5 > 10 µM | 786-0 > 10 µM | A549 > 10 µM | RXF 393 > 10 µM | OVCAR-8 > 10 µM | UACC-62 > 10 µM | SW-620 > 10 µM | NCI/ADR-RES > 10 µM | NCI-H226 > 10 µM | NCI-H23 > 10 µM | SK-OV-3 > 10 µM | OVCAR-4 > 10 µM | Malme-3M > 10 µM | SK-MEL-5 > 10 µM | COLO 205 > 10 µM | IGROV-1 > 10 µM

C=CC[C@H]1C[C@@]2(C)OC[C@H](C(C)C)N2C1=O
inactive: LOX IMVI > 100 µM | HT-29 > 100 µM | OVCAR-5 > 100 µM | 786-0 > 100 µM | A549 > 100 µM | RXF 393 > 100 µM | OVCAR-8 > 100 µM | UACC-62 > 100 µM | SW-620 > 100 µM | NCI-H23 > 100 µM | HOP-92 > 100 µM | OVCAR-4 > 100 µM | Malme-3M > 100 µM | SK-MEL-5 > 100 µM | COLO 205 > 100 µM | IGROV-1 > 100 µM

O=C1c2sc(-c3ccc(Cl)cc3)cc2-n2cccc21
inactive: LOX IMVI > 100 µM | HT-29 > 100 µM | OVCAR-5 > 100 µM | 786-0 > 100 µM | A549 > 100 µM | RXF 393 > 100 µM | OVCAR-8 > 100 µM | UACC-62 > 100 µM | SW-620 > 100 µM | NCI/ADR-RES > 100 µM | NCI-H226 > 100 µM | SK-OV-3 > 100 µM | OVCAR-4 > 100 µM | Malme-3M > 100 µM | SK-MEL-5 > 100 µM | COLO 205 > 100 µM | IGROV-1 > 100 µM

Cc1cccc(Nc2cn(COCc3ccccc3)c(=O)[nH]c2=O)c1
inactive: LOX IMVI 56.2 µM | HT-29 64.6 µM | OVCAR-5 > 100 µM | 786-0 > 100 µM | A549 > 100 µM | RXF 393 56 µM | UACC-62 > 100 µM | SW-620 > 100 µM | NCI/ADR-RES 14.4 µM | NCI-H23 > 100 µM | HOP-92 > 100 µM | OVCAR-4 41.5 µM | SK-MEL-5 > 100 µM | COLO 205 84.1 µM | IGROV-1 29.4 µM

CCCCC/C=C\C=C1\C(=O)C=C[C@@H]1C/C=C\CCCC(=O)O
inactive: LOX IMVI 2.27 µM | HT-29 5.05 µM | OVCAR-5 3.41 µM | 786-0 3.21 µM | A549 5.73 µM | RXF 393 1.94 µM | OVCAR-8 1.49 µM | UACC-62 3.94 µM | SW-620 2.8 µM | NCI/ADR-RES 1.24 µM | NCI-H226 7.38 µM | NCI-H23 7.16 µM | SK-OV-3 7.06 µM | OVCAR-4 1.53 µM | Malme-3M 10.2 µM | SK-MEL-5 3.78 µM | COLO 205 2.96 µM | IGROV-1 2.75 µM

Cc1cc(O)nc2c3c(ccc12)OC(C)(C)C=C3
inactive: HT-29 5.66 µM | OVCAR-5 9.62 µM | 786-0 6.7 µM | A549 7.33 µM | RXF 393 5.25 µM | OVCAR-8 7.59 µM | UACC-62 5.01 µM | SW-620 3.61 µM | NCI/ADR-RES 3.99 µM | NCI-H23 5.46 µM | SK-OV-3 11.3 µM | HOP-92 > 100 µM | OVCAR-4 18.6 µM | Malme-3M 13.2 µM | SK-MEL-5 3.82 µM | COLO 205 2.89 µM | IGROV-1 6.44 µM
